Measurements as given in patent publication US20210346359A1, “Use of CFTR Modulators For Treating Cerebrovascular Conditions” (Qanatpharma AG, priority 2018, published 2021).
“Also recorded” adds a separate entry of the source.

Key:
[1] = tested on: olfactory cerebral arteries; assay: Myogenic tone of isolated olfactory cerebral arteries after in vivo treatment; parameters: species or system mouse
Method: Induction of Subarachnoid Hemorrhage: A well-characterized model of experimental SAH (6) was used. Briefly, each mouse was anaesthetized (isoflurane) and its head was fixed in a stereotactic frame: a 7 mm incision was made along the midline of the anterior scalp and 0.9 mm hole drilled into the skull 4.5 mm anterior to the bregma. A spinal needle was advanced to the chiasmatic cistern: 80 μl of arterial blood was injected into the intracranial space over 10 seconds. […] Following injection, the scalp incision was closed. Buprenorphine (0.05 mg/kg; 0.5-1.0 ml volume) was administered twice/day (initiated immediately following the SAH surgical procedure). Sham-operated animals underwent an identical surgical procedure, with sterile saline injected instead of blood. Olfactory cerebral arteries were isolated at 2 days post-SAH induction.
Isolation and functional assessment of resistance arteries: Mouse olfactory (a first branch of the anterior cerebral artery) and PCAs were carefully dissected, cannulated onto micropipettes, stretched to their in vivo lengths and pressurized to 45 mmHg, as previously described (3,6); mouse skeletal muscle resistance arteries were dissected from the cremaster muscle, cannulated and pressurized to 60 mmHg. All functional experiments were conducted in 3-morpholinopropanesulfonic acid (MOPS) buffered saline at 37° C. with no perfusion. […]
Myogenic responses were elicited by step-wise 20 mmHg increases in transmural pressure from 20 mmHg to 80 mmHg (olfactory arteries) or 100 mmHg (posterior cerebral arteries and cremaster skeletal muscle resistance arteries). At each pressure step, vessel diameter (diaactive) was measured once a steady state was reached (5 min). Vessels requiring treatment (e.g., CFTR(inh)-172) were incubated with the reagent in MOPS for 30 min and myogenic responses were then assessed in the presence of that reagent. Following completion of all diaactive measurements, MOPS buffer was replaced with a Ca^2+-free version and maximal passive diameter (diamax) was recorded at each pressure step.
(§1) Myogenic tone was calculated as the percent constriction in relation to the maximal diameter at each respective transmural pressure: tone (% of diamax)=[(diamax−diaactive)/diamax]×100, where diaactive is the vessel diameter in MOPS containing Ca^2+ and diamax is the diameter in Ca^2+-free MOPS. Analyses of vasomotor responses to phenylephrine used the same calculation, only in this case, diaactive represents the vessel diameter at steady state following application of the given agent and diamax represents the maximal diameter measured under Ca^2+-free conditions.

[2] = tested on: olfactory cerebral arteries; assay: Phenylephrine responses of isolated olfactory cerebral arteries; format: in vivo, mouse; settings: for phenylephrine dose-response relationship, SAH vs SAH+treatment: not normalized; for log EC50 of phenylephrine response: olfactory cerebral arteries, SAH+treatment group, log scale
Method: Isolation and functional assessment of resistance arteries: Mouse olfactory (a first branch of the anterior cerebral artery) and PCAs were carefully dissected, cannulated onto micropipettes, stretched to their in vivo lengths and pressurized to 45 mmHg, as previously described (3,6); mouse skeletal muscle resistance arteries were dissected from the cremaster muscle, cannulated and pressurized to 60 mmHg. All functional experiments were conducted in 3-morpholinopropanesulfonic acid (MOPS) buffered saline at 37° C. with no perfusion. Vasomotor responses to phenylephrine (5 μmol/L for posterior cerebral arteries, 10 μmol/L for cremaster skeletal muscle arteries) provided an assessment of vessel viability at the beginning and end of each experiment. Arteries failing to show ≥25% constriction to phenylephrine were excluded.
as §1

[3] = molecular target: T1, CFTR (Mus musculus, UniProt P26361); assay: Western blot of CFTR protein in cerebral arteries of naïve mice treated in vivo; parameters: Cerebral artery lysates were prepared by grinding artery samples in lysis buffer; from tissue; host or cells: cerebral arteries of male wild-type C57BL/6N mice (naïve, heart failure or subarachnoid hemorrhage models); settings: 3 mg/kg daily for 2 days, vs vehicle controls
T1 sequence (P26361 whole entry): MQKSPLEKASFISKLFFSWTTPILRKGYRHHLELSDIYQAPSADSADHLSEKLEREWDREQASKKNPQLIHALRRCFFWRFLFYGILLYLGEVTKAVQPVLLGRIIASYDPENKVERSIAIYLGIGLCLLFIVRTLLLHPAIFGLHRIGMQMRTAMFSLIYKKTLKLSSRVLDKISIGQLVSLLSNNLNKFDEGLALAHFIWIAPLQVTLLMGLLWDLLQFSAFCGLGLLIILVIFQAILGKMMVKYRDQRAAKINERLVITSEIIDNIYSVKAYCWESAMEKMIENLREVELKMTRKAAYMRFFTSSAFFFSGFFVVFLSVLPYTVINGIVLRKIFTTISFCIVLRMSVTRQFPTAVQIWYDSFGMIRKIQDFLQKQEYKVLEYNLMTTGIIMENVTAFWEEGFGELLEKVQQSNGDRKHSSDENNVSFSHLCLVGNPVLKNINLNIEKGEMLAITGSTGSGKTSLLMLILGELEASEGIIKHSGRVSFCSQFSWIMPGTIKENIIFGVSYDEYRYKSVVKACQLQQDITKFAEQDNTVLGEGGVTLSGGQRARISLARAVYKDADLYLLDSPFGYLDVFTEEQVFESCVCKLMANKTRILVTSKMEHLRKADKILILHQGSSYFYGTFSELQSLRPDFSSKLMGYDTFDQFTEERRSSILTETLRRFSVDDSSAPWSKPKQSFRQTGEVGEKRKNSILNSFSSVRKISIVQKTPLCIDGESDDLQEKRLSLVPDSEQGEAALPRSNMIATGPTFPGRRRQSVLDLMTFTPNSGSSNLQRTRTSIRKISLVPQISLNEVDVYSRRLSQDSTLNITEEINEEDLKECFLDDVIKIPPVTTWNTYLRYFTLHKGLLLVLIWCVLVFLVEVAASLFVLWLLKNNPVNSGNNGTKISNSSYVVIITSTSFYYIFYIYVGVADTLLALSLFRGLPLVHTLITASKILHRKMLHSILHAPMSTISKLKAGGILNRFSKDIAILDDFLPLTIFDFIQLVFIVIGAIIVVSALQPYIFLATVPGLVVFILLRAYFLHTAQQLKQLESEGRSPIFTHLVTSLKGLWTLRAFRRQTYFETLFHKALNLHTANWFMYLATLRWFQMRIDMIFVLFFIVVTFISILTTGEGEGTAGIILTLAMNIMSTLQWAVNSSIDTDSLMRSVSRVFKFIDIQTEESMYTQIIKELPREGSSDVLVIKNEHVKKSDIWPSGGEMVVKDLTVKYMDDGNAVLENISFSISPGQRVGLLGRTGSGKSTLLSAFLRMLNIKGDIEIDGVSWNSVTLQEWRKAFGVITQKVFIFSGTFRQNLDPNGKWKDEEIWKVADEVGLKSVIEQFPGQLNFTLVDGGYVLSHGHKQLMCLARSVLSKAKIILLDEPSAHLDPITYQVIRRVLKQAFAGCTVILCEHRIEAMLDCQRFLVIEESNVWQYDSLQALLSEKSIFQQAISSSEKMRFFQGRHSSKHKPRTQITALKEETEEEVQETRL
Method: (§2) Western blots for CFTR were completed as previously described (12, 18). Cerebral artery lysates were prepared by grinding artery samples in lysis buffer containing 50 mM Tris (pH 7.3), 150 mM NaCl, 2 mM […], 0.1% Triton-X-100, 0.1% […] and protease inhibitors; the same lysis buffer was used to prepare cell culture lysates. Following lysis, the samples were centrifuged (10 minutes at 13,500 g; at 4° C.) to remove insoluble material. Immediately prior to polyacrylamide electrophoresis, additional SDS (to 2% final concentration), glycerol (to 2% final concentration), β-mercaptoethanol (to 2% final concentration) and dithiothreitol (2 mM final concentration) were added. Proteins were separated electrophoretically on 7% acrylamide gels and transferred onto polyvinylidene difluoride (PVDF) membranes. […]
(§3) The primary antibodies were conjugated with either peroxidase-labeled donkey anti-rabbit IgG (GE Healthcare Amersham (Piscataway, USA) cat# NA934) or peroxidase-labeled goat anti-mouse IgG (GE Healthcare Amersham cat# NA931) secondary antibodies. […] Developed films were evaluated densitometrically using “Image J” software (freely available from the NIH); digital images were evaluated with Image Lab software (Bio-Rad). […]

[4] = molecular target: T1, CFTR; assay: CFTR protein in cerebral arteries of mice with subarachnoid hemorrhage; format: in vivo; parameters: Cerebral artery lysates were prepared by grinding artery samples in lysis buffer; from tissue; host or cells: cerebral arteries of male wild-type C57BL/6N mice (naïve, heart failure or subarachnoid hemorrhage models); settings: 2 days post-induction, 3 mg/kg daily for 2 days
Method: as §2, §3

[5] = arteries from SAH mice, in vivo 3 mg/kg daily for 2 days
[6] = olfactory cerebral arteries from SAH mice, 3 mg/kg i.p. daily for 2 days, 3 mg/kg

Structure (SMILES)	olfactory cerebral artery myogenic tone ([1]; arteries from CFTR knockout mice, in vivo 3 mg/kg daily for 2 days)	olfactory cerebral artery myogenic tone [1, 5]	olfactory cerebral artery myogenic tone ([1]; arteries from sham-operated mice, 3 mg/kg i.p. daily for 2 days, 3 mg/kg)	phenylephrine dose-response relationship ([2]; olfactory cerebral arteries from CFTR knockout mice, 3 mg/kg i.p. daily for 2 days, 3 mg/kg)	phenylephrine dose-response relationship normalized to basal tone, SAH vs SAH+C18 [2, 6]	phenylephrine dose-response relationship, SAH vs SAH+treatment [2, 6]	phenylephrine dose-response relationship ([2]; olfactory cerebral arteries from sham-operated mice, 3 mg/kg i.p. daily for 2 days, 3 mg/kg)	log EC50 of phenylephrine response [2]	CFTR protein expression in cerebral arteries [3]	cerebral artery CFTR protein expression in SAH [4]	CFTR protein expression in cerebral arteries ([3]; 3 mg/kg)
O=C(Nc1ncc(C(c2ccccc2Cl)N2CCC(O)C2)s1)C1(c2ccc3c(c2)OCO3)CC1 (stereo not drawn) [C18, 1-(benzo[d][1,3]dioxol-5-yl)-N-(5-((2-chlorophenyl)(3-hydroxypyrrolidin-1-yl)methyl)thiazol-2-yl)cyclopropanecarboxamide]	not susceptible; also recorded: not observed	normalizes; also recorded: reduces	does not affect; also recorded: does not alter	not affected; also recorded: does not alter	curves overlap; also recorded: minimal	expected baseline shift; also recorded: not statistically different	does not affect; also recorded: does not alter	−6.61±0.31	higher	restores; also recorded: eliminates this reduction	–
Cc1ccc(NC(=O)C2(c3ccc4c(c3)OC(F)(F)O4)CC2)nc1-c1cccc(C(=O)O)c1 [lumacaftor]	–	normalizes; also recorded: reduces	–	–	–	does not affect; also recorded: does not alter	–	−5.90±0.18	–	restores; also recorded: eliminates this reduction	increases CFTR protein expression; also recorded: higher
